According to publication PMC5564600 (Oncotarget, 2017):
Read-outs that look alike come from different tables or passages of the source.

How the values were obtained:
Assay in all cases: biochemical
Assay type in all cases: binding
panel of 442 kinases [1] = target: T1, panel of 442 kinases (Homo sapiens, UniProt Q2M2I8); settings: AAK1; for remaining activity at 1 µM: read-out: % of control at 1 µM
T1 construct: purchased Ambit Biosciences (scanMAXX KINOMEscan)

panel of 442 kinases [2] = target: T2, panel of 442 kinases (Homo sapiens, UniProt Q15349)
T2 construct: purchased Ambit Biosciences (scanMAXX KINOMEscan)

panel of 442 kinases [3] = target: T3, panel of 442 kinases (Homo sapiens, UniProt Q9NRH2); settings: kinase SNRK; for remaining activity at 1 µM: read-out: SNRK (% of control at 1 µM)
T3 construct: purchased Ambit Biosciences (scanMAXX KINOMEscan)
T3 sequence (Q9NRH2 1-765): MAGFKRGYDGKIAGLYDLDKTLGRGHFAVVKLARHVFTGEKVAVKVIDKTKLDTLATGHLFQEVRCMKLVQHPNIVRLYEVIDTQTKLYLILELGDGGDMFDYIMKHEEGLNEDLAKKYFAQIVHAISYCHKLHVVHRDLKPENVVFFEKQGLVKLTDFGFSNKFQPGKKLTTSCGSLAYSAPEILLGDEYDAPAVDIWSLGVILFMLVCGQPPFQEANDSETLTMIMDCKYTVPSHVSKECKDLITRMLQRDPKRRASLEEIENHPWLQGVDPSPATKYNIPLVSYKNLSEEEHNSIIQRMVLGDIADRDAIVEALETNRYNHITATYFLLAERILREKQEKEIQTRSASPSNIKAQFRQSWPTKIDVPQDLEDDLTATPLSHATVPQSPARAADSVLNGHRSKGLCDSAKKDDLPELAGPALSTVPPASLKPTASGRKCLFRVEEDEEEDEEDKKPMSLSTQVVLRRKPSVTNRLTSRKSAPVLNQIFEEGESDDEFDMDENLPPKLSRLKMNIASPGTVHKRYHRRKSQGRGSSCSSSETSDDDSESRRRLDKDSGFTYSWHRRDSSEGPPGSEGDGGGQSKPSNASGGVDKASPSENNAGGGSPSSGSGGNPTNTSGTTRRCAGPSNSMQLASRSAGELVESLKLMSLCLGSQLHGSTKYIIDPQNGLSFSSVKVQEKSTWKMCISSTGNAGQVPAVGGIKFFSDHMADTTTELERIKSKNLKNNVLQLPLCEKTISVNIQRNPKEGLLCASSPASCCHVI

panel of 442 kinases [4] = target: T4, panel of 442 kinases (Homo sapiens, UniProt Q12852); settings: DLK; for remaining activity at 1 µM: read-out: % of control at 1 µM
T4 construct: purchased Ambit Biosciences (scanMAXX KINOMEscan)
T4 sequence (Q12852 1-859): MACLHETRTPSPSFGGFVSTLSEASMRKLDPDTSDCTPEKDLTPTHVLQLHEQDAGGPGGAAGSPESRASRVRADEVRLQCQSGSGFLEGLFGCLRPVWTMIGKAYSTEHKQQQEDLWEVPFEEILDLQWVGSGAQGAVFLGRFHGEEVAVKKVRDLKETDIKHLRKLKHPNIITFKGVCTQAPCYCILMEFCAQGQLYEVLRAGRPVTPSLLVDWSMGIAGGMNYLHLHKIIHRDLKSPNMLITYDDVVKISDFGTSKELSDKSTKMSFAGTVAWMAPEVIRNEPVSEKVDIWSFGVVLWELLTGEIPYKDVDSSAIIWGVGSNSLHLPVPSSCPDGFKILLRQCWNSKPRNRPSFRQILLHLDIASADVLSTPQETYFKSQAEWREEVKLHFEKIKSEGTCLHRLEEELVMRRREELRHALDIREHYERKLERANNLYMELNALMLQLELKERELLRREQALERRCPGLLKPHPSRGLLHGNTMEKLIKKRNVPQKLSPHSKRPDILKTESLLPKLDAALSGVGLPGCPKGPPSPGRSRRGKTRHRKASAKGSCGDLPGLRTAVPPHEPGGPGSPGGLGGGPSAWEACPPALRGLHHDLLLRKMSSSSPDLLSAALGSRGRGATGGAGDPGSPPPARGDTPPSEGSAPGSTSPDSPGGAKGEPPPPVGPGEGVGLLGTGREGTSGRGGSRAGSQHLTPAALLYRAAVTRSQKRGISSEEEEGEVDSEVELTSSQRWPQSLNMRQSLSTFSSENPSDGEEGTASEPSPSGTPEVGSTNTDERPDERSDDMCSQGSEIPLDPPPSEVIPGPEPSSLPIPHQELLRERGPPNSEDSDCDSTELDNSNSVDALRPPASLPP

panel of 442 kinases [5] = target: T5, panel of 442 kinases (Homo sapiens, UniProt Q15208); settings: kinase NDR1; for remaining activity at 1 µM: read-out: % of control at 1 µM
T5 construct: purchased Ambit Biosciences (scanMAXX KINOMEscan)

[6] = 10 µM, read-out: % of control at 10 µM
[7] = kinase RSK3(Kin.Dom.1-N-terminal), read-out: RSK3(Kin.Dom.1-N-terminal) (% of control at 1 µM)
[8] = kinase RSK3(Kin.Dom.2-C-terminal), read-out: RSK3(Kin.Dom.2-C-terminal) (% of control at 1 µM)

T2 sequence (Q15349 whole entry): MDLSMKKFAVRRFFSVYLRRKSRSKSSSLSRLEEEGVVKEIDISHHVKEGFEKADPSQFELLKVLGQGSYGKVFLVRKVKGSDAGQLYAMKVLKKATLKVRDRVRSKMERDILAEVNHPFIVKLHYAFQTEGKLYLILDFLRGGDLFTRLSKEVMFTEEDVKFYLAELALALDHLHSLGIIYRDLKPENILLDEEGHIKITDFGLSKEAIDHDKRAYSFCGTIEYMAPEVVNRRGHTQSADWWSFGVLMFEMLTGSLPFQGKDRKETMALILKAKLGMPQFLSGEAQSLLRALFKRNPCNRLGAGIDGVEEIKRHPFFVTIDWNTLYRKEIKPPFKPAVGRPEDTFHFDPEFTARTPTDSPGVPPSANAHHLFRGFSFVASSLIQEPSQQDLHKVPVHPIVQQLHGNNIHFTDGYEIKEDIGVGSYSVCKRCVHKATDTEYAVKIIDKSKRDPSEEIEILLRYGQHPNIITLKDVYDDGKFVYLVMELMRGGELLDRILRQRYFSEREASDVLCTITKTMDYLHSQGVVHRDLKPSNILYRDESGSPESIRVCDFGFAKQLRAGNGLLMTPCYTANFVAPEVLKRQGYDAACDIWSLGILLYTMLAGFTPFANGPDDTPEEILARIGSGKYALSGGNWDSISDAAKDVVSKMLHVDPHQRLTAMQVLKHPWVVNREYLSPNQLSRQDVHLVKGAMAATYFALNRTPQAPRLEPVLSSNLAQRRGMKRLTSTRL
T5 sequence (Q15208 whole entry): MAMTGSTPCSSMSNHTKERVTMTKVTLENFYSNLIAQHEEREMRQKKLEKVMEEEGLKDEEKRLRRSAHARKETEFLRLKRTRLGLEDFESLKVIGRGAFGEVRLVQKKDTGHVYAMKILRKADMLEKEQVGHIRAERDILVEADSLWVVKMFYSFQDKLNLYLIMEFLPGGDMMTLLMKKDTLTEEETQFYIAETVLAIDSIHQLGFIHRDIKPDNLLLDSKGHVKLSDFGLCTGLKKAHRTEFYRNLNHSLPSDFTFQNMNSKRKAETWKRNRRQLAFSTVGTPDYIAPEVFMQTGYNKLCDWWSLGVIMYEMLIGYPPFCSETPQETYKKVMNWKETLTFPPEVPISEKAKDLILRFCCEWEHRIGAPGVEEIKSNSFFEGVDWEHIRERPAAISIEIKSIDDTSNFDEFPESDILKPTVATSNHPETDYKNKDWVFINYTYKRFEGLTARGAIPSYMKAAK
T1 sequence (Q2M2I8 whole entry): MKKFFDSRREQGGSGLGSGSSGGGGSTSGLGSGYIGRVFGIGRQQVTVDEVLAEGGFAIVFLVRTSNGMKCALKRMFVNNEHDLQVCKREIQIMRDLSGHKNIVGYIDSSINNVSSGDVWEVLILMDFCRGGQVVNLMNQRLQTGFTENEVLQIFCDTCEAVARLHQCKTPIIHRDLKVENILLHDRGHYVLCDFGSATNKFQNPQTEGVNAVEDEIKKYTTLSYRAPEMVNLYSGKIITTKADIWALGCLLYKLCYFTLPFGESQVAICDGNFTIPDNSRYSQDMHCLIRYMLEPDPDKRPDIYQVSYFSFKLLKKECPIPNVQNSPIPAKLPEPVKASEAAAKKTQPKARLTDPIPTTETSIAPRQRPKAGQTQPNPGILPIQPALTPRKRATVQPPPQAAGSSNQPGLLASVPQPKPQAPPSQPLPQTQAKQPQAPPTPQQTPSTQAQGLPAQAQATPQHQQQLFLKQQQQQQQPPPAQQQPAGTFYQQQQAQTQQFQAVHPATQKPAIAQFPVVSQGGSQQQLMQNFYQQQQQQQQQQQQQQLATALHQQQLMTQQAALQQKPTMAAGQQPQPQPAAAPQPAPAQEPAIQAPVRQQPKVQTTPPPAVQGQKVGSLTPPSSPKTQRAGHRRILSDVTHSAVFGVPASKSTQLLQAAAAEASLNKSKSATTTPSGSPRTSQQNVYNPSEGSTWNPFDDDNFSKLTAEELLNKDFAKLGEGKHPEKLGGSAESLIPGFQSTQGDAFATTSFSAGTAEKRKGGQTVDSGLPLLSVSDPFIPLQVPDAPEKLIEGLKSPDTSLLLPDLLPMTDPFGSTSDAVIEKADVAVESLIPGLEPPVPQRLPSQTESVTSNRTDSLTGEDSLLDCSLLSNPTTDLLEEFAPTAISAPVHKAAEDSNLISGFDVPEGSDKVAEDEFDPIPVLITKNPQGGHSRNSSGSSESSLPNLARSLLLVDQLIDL

SMILES | remaining activity at 1 µM (panel of 442 kinases [1]) [%] | remaining activity at 10 µM (panel of 442 kinases [1]; [6]) [%] | remaining activity at 1 µM (panel of 442 kinases [2]; [7]) [%] | remaining activity at 10 µM (panel of 442 kinases [2]; kinase RSK3(Kin.Dom.1-N-terminal), read-out: RSK3(Kin.Dom.1-N-terminal) (% of control at 10 µM)) [%] | remaining activity at 1 µM (panel of 442 kinases [2]; [8]) [%] | remaining activity at 10 µM (panel of 442 kinases [2]; kinase RSK3(Kin.Dom.2-C-terminal), read-out: RSK3(Kin.Dom.2-C-terminal) (% of control at 10 µM)) [%] | remaining activity at 1 µM (panel of 442 kinases [3]) [%] | remaining activity at 10 µM (panel of 442 kinases [3]; 10 µM, read-out: SNRK (% of control at 10 µM)) [%] | remaining activity at 1 µM (panel of 442 kinases [4]) [%] | remaining activity at 10 µM (panel of 442 kinases [4]; [6]) [%] | remaining activity at 1 µM (panel of 442 kinases [5]) [%] | remaining activity at 10 µM (panel of 442 kinases [5]; [6]) [%]
Nc1cc(C(F)(F)F)c(-c2cc(N3CCOCC3)nc(N3CCOCC3)n2)cn1 [Buparlisib] | 97 | 100 | 95 | 100 | 100 | 100 | 90 | 100 | 94 | 100 | 100 | 100
Cn1c(=O)n(-c2ccc(C(C)(C)C#N)cc2)c2c3cc(-c4cnc5ccccc5c4)ccc3ncc21 [Dactolisib, 2-methyl-2-[4-(3-methyl-2-oxo-8-quinolin-3-yl-2,3-dihydroimidazo[4,5-c]quinolin-1-yl)-phenyl] propionitrile] | 84 |  | 70 |  | 75 |  | 71 |  | 100 |  | 100 | 
COc1ncc(-c2ccc3nccc(-c4ccnnc4)c3c2)cc1NS(=O)(=O)c1ccc(F)cc1F [Omipalisib] | 66 |  | 100 |  | 100 |  | 88 |  | 63 |  | 100 | 
FC(F)c1nc2ccccc2n1-c1nc(N2CCOCC2)nc(N2CCOCC2)n1 [ZSTK474, 2-(difluoromethyl)-1-[4,6-di(4-morpholinyl)-1,3,5-triazin-2-yl]-1H-benzimidazole] | 100 |  | 100 |  | 100 |  | 100 |  | 100 |  | 95 | 
